Measurements taken from EPA's ToxValDB 9.5.
Where “and” joins values, the source holds several entries; their conditions need not be identical. Identical values can stand only once.

Assays:
Oryctolagus sp. = conditions: for LD50: acute
Mus musculus = conditions: for LD50: acute
Rattus norvegicus [1] = tested on: Rattus norvegicus
Rattus norvegicus [2] = conditions: oral, gavage
Canidae = conditions: chronic, oral, diet, Dog Other
Rattus norvegicus [3] = conditions: Hershberger; duration: 10 days; oral; gavage; Sprague-Dawley; inactive + Negative + Negative + neither + negative
[4] = duration: 2 years, M/F, abnormal pigments in blood
[5] = duration: 2 years, M/F, testicular degeneration
[6] = duration: 6 months, M/F, increased serum alkaline phosphatase levels and increased liver-to-brain weight ratio
[7] = acute, oral, gavage, Sprague-Dawley
[8] = subchronic, duration: 13 weeks, oral, gavage, Sprague-Dawley
[9] = duration: 1 years, F, anemia (males)
[10] = duration: 1 years, M, anemia (males)
[11] = duration: 1 years, M, increased serum bilirubin and aspartate aminotransferase, increased urinary volume

How did the NOAEL (Oryctolagus sp.; reproduction developmental, duration: 6 days, dermal, New Zealand) turn out when `C=CCOC(=O)OCCOCCOC(=O)OCC=C` [Diallyl diglycol carbonate] was run?
Its NOAEL is 0.1 mg/kg-day.

And the LD50 (Mus musculus; injection, Intraperitoneal, albino)?
Its LD50 is 269 mg/kg.

What about the LD50 (Rattus norvegicus [1]; acute, oral, gavage, Crl) of the same compound?
The LD50 was 349 mg/kg.

And the LD50 (Rattus norvegicus [1]; acute, oral, gavage, Fischer 344)?
The LD50 was 515 mg/kg.

How did the NOEL (Rattus norvegicus [2]; short-term, duration: 28 days, M/F, Fischer 344, Deaths + Clinical Observation: Salivation + Body Weight Changes: Weight gain decrease + Food Consumption: decrease + Blood Chemistry: GPT …) turn out when `C1=CC2C3C=CC(C3)C2C1` (configuration not stated) [Dicyclopentadiene] was run?
Its NOEL is 8 mg/kg-day.

What about the NOAEL (Oryctolagus sp.; reproduction developmental, duration: 14 days, oral, gavage, F, New Zealand) of the same compound?
Its NOAEL is 25 mg/kg-day.

What about the NOAEL (Rattus norvegicus [1]; developmental, duration: 10 days, oral, diet, Sprague-Dawley) of the same compound?
Its NOAEL is 750 ppm.

And the NOAEL (Rattus norvegicus [1]; developmental, duration: 10 days, oral, gavage, Sprague-Dawley)?
The NOAEL was 50 mg/kg-day.

And the NOAEL (Rattus norvegicus [1]; reproduction developmental, duration: 10 days, oral, diet, F, Sprague-Dawley)?
The NOAEL was 750 ppm.

And the NOAEL (Rattus norvegicus [1]; reproduction developmental, oral, diet, Sprague-Dawley, generation: F0)?
The NOAEL was 750 ppm.

And the NOAEL (Rattus norvegicus [1]; reproduction developmental, oral, diet, Sprague-Dawley, generation: F1)?
The NOAEL was 750 ppm.

And the NOAEL (Rattus norvegicus [1]; reproduction developmental, oral, diet, Sprague-Dawley, generation: F2)?
Its NOAEL is 750 ppm.

And the NOAEL (Rattus norvegicus [1]; reproduction developmental, oral, gavage, F, Sprague-Dawley)?
The NOAEL was 20 mg/kg-day.

What about the NOAEL (Rattus norvegicus [1]; reproduction developmental, oral, gavage, M, Sprague-Dawley) of the same compound?
Its NOAEL is 100 mg/kg-day.

And the NOAEL (Rattus norvegicus [1]; reproduction developmental, oral, gavage, Sprague-Dawley, generation: F1)?
The NOAEL was 20 mg/kg-day.

How did the NOEL (Rattus norvegicus [2]; subchronic, M, Sprague-Dawley, Body Weight Changes: decrease + Hematology: RBC decrease, Hgb decrease, Hct decrease, MCHC decrease, MCV increase, Ret increase + Blood …) turn out when `CN(C)C(=O)Nc1ccc(Cl)c(Cl)c1` [Diuron] was run?
Its NOEL is 20 mg/kg-day.

And the LEL (Canidae; [4])?
The LEL was 3.12 mg/kg-day.

And the NOEL (Canidae; [4])?
Its NOEL is 0.625 mg/kg-day.

How did the LD50 (Oryctolagus sp.; dermal) turn out when `CCOC(=O)CCl` [Ethyl chloroacetate] was run?
Its LD50 is 335 mg/kg and 230 mg/kg.

And the LD50 (Oryctolagus sp.; dermal, occlusive, New Zealand)?
Its LD50 is 255 mg/kg.

And the LD50 (Mus musculus; injection, subcutaneous)?
The LD50 was 250 mg/kg.

And the LD50 (Mus musculus; oral)?
Its LD50 is 350 mg/kg.

What about the LD50 (Rattus norvegicus [1]; acute, dermal) of the same compound?
Its LD50 is 161 mg/kg.

Which results are given for `CCOP(=O)=O.CCOP(=O)=O.CCOP(=O)=O.[Al+3]` [Fosetyl aluminum]?
NOEL (Canidae; duration: 2 years, testicular degeneration): 250 mg/kg-day; LEL (Canidae; [5]): 400 mg/kg-day; NOEL (Canidae; [5]): 250 mg/kg-day

Which results are given for `COCC(=O)N(c1c(C)cccc1C)C(C)C(=O)OC` (configuration not stated) [Metalaxyl]?
LEL (Canidae; [6]): 25 mg/kg-day; NOEL (Canidae; [6]): 6.25 mg/kg-day; NOEL (Rattus norvegicus [3]): 350 mg/kg-day

Which results are given for `CC(C)CCC(C)Nc1ccc(NC(C)CCC(C)C)cc1` (configuration not stated) [N,N'-Bis(1,4-dimethylpentyl)-4-phenylenediamine]?
LD50 (Oryctolagus sp.; dermal, occlusive, New Zealand): > 3160 mg/kg; LC50 (Rattus norvegicus [1]; acute, inhalation): > 400 mg/m3; LD50 (Rattus norvegicus [1]; [7]): 730 mg/kg; LOAEL (Rattus norvegicus [1]; chronic, duration: 22 weeks, inhalation): 100 mg/m3; NOAEL (Rattus norvegicus [1]; developmental, duration: 10 days, oral, gavage, Charles River CD Albino): 150 mg/kg-day; NOAEL (Rattus norvegicus [1]; reproduction developmental, duration: 23 weeks, oral, diet, generation: F0): 30 ppm; NOAEL (Rattus norvegicus [1]; reproduction developmental, duration: 23 weeks, oral, diet, generation: F1): 30 ppm; NOAEL (Rattus norvegicus [1]; reproduction developmental, duration: 23 weeks, oral, diet, generation: F2): 30 ppm; NOAEL (Rattus norvegicus [1]; reproduction developmental, duration: 10 days, oral, gavage, F, Charles River CD Albino): 25 mg/kg-day; NOAEL (Rattus norvegicus [1]; subchronic, duration: 30 days, oral, diet, F, Sprague-Dawley): 28.8 mg/kg-day; NOAEL (Rattus norvegicus [1]; subchronic, duration: 30 days, oral, diet, M, Sprague-Dawley): 9.6 mg/kg-day; NOAEL (Rattus norvegicus [1]; subchronic, duration: 90 days, oral, diet, M, Sprague-Dawley): 9.6 mg/kg-day

For `CN1C(=O)c2ccc([N+](=O)[O-])cc2C1=O` [N-Methyl-4-nitrophthalimide], which LD50 (Oryctolagus sp.; dermal, New Zealand) is on record?
Its LD50 is over 2000 mg/kg.

What about the NOAEL (Oryctolagus sp.; developmental, duration: 13 days, oral, gavage, New Zealand) of the same compound?
Its NOAEL is 50 mg/kg-day.

What about the NOAEL (Oryctolagus sp.; reproduction developmental, duration: 13 days, oral, gavage, F, New Zealand) of the same compound?
Its NOAEL is 50 mg/kg-day.

What about the LD50 (Rattus norvegicus [1]; acute, inhalation, whole body, Sprague-Dawley) of the same compound?
Its LD50 is over 36 mg/L.

What about the LD50 (Rattus norvegicus [1]; [7]) of the same compound?
Its LD50 is 2800 mg/kg.

What about the NOAEL (Rattus norvegicus [1]; developmental, duration: 9 days, oral, gavage, Sprague-Dawley) of the same compound?
Its NOAEL is 50 mg/kg-day.

And the NOAEL (Rattus norvegicus [1]; reproduction developmental, duration: 4 weeks, oral, gavage, Sprague-Dawley)?
Its NOAEL is over 25 mg/kg-day.

And the NOAEL (Rattus norvegicus [1]; reproduction developmental, duration: 4 weeks, oral, gavage, Sprague-Dawley, generation: F0)?
The NOAEL was 2.5 mg/kg-day.

And the NOAEL (Rattus norvegicus [1]; reproduction developmental, duration: 4 weeks, oral, gavage, Sprague-Dawley, generation: F1)?
Its NOAEL is over 25 mg/kg-day.

What about the NOAEL (Rattus norvegicus [1]; reproduction developmental, duration: 9 days, oral, gavage, F, Sprague-Dawley) of the same compound?
Its NOAEL is 10 mg/kg-day.

What about the LOAEL (Rattus norvegicus [1]; [8]) of the same compound?
Its LOAEL is 10 mg/kg-day.

And the NOAEL (Rattus norvegicus [1]; [8])?
Its NOAEL is 1 mg/kg-day.

`CCCCCCCCC=O` [Nonanal] was tested. Which LD50 (Oryctolagus sp.; dermal, albino) did it give?
The LD50 was over 5000 mg/kg.

And the LD50 (Rattus norvegicus [1]; acute, oral, gavage, Wistar)?
Its LD50 is over 5000 mg/kg.

With `CCC/C(=N\OCC)C1=C(O)CC(CC(C)SCC)CC1=O` (configuration not stated) [Sethoxydim] as the compound, how does the LEL (Canidae; [9]) read?
The LEL was 19.9 mg/kg-day.

And the NOEL (Canidae; [9])?
The NOEL was 9.41 mg/kg-day.

What about the LEL (Canidae; [10]) of the same compound?
The LEL was 17.5 mg/kg-day.

And the NOEL (Canidae; [10])?
Its NOEL is 8.86 mg/kg-day.

With `CCN(CC)C(=S)SSC(=S)N(CC)CC` [Tetraethylthiuram disulfide] as the compound, how does the LD50 (Oryctolagus sp.; dermal, occlusive, New Zealand) read?
Its LD50 is over 2000 mg/kg.

And the NOAEL (Mus musculus; reproduction developmental, duration: 6 days, oral, gavage, CD1, generation: F1)?
The NOAEL was over 4900 mg/kg-day.

What about the LD50 (Rattus norvegicus [1]; [7]) of the same compound?
The LD50 was 4570 mg/kg and > 5200 mg/kg and 7070 mg/kg.

What about the NOAEL (Rattus norvegicus [1]; reproduction developmental, duration: 19 days, oral, gavage, F, Sprague-Dawley) of the same compound?
The NOAEL was over 250 mg/kg-day.

Which LEL (Canidae; [11]) does the source give for `COC(=O)c1ccccc1S(=O)(=O)NC(=O)N(C)c1nc(C)nc(OC)n1` [Tribenuron-methyl] here?
Its LEL is 8.16 mg/kg-day.

What about the NOEL (Canidae; [11]) of the same compound?
Its NOEL is 0.79 mg/kg-day.

What does the source list for `Cc1ccc(OP(=O)(Oc2ccc(C)cc2C)Oc2ccc(C)cc2C)c(C)c1` [Trixylyl phosphate]?
LD50 (Oryctolagus sp.; dermal, New Zealand): > 2000 mg/kg; LD50 (Rattus norvegicus [1]; [7]): > 20000 mg/kg
